Key:
[1] = test system: hematological malignancies and solid tumors; conditions: several hematological malignancies and solid tumors; cited from earlier work
[2] = test system: lymphoid malignancies; conditions: cited from earlier work
[3] = test system: T-ALL patient derived xenograft models; conditions: in vivo; cited from earlier work
[4] = biological target: T1, BCLXL (Homo sapiens, UniProt Q07817, V10N/V9A); experiment: Fluorescence polarisation assay (PUMA-based probe displacement); type: binding; also: 20 nM protein, 10 nM fluorescent probe
[5] = test system: MOLT-4 T-cell Acute Lymphoblastic Leukemia (T-ALL) model; experiment: MOLT-4 xenograft efficacy study (tumor growth inhibition); type: in vivo, female NOD SCID mice; conditions: for % TGI (day 17): 3.75 mg/kg, IV, Q3D6; for activity in vivo after intravenous administration: MOLT-4 xenograft
Experimental: The in vivo therapeutic and pharmacodynamic effects of Bcl-xL-targeting small molecules were determined in MOLT-4 T-cell Acute Lymphoblastic Leukemia (T-ALL) model upon intravenous (IV) administration. The tested compounds were formulated in Hydroxypropyl-β-Cyclodextrin 20%/Hydrogen Chloride 25 mM (HPBCD/HCl). MOLT-4 cells (ATCC No. CRL-1582) were cultured in RPMI supplemented with 10% FBS. Cells were re-suspended in 50% matrigel (BD Biosciences) and 0.1 mL containing 5×10^6 cells was subcutaneously inoculated into the right flank of female NOD SCID mice (Charles River). For efficacy studies, when tumors reached the appropriate volume, mice were randomized (8 animals per group) using Easy stat software. Control vehicle (HPBCD/HCl), Example 73 (3.75 or 7.5 mg/kg) or Example 100 (3.75 mg/kg) were injected IV ([…]-[…]). Mice body weight was monitored three times a week and tumor size was measured using electronic calipers. Tumor volume was estimated by measuring the minimum and maximum tumor diameters using the formula: (minimum diameter)^2 (maximum diameter)/2. At the end of the treatment cycle (day 17), tumor growth inhibition was calculated using the formula: [formula] Response was evaluated as follows: CR (Complete Response) if tumor size was ≤25 mm^3 for at least three consecutive measurements, PR (Partial Response) if tumor size was comprised between 25 mm^3 and half of the starting size for at least three consecutive measurements. Mice were sacrificed at the first measurement for which tumor volume exceeded 2000 mm^3 or at the first signs of animal health deterioration. Efficacy of Example 73 and Example 100 on MOLT-4 xenografts is illustrated in Table 5. Treatment was started 12 days post tumor cells inoculation (average size: 214 mm^3). Vehicle (HPBCD/HCl), Example 73 (3.75 and 7.5 mg/kg) or Example 100 (3.75 mg/kg) were dosed IV each 3 days for a total of 6 administrations.

[6] = test system: MOLT-4 cells; experiment: MOLT-4 cell viability, MTT assay; type: cell-based; conditions: Homo sapiens, MOLT-4, 48 h, 48 h exposure
Procedure, shortened: (§1)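 Cells grown in RPMI 1640 with 10% heat-inactivated FBS at 37° C, 5% CO2, exposed 48 h to nine 3.16-fold serial compound dilutions in triplicate. MTT added for 4 h, SDS/HCl solubilisation overnight, absorbance at 540 nm; IC50 by four-parameter fit.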

[7] = test system: H146 cells; experiment: H146 cell viability, MTT assay; type: cell-based; conditions: Homo sapiens, NCI-H146, 48 h, 48 h exposure
Procedure, shortened: as §1

[8] = biological target: T1, BCLXL; experiment: AlphaLISA assay (BIM peptide displacement); type: binding; conditions: 20 pM protein, 1 nM peptide
Procedure, shortened: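 Competitive displacement of fluorescein-labelled BIM peptide (1 nM) from biotinylated GST-BCL-XL(2-209) (20 pM) in 10 mM HEPES, 150 mM NaCl, 0.05% Tween 20, pH 7.4, 4% DMSO; 11-point dilutions. Overnight at 23° C with acceptor beads, then donor beads 2 h; Alpha signal at 615 nm.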

[9] = biological target: T2, Bcl-xL protein (Homo sapiens, UniProt Q07817, N197C); experiment: Fluorescence quenching assay (PUMA peptide displacement); type: binding; conditions: 1 nM protein, 400 nM peptide, 2 hours at 23° C.; KI determined from IC50
T2 construct: (2-197)[N197C]; His-His (two His8 stretches joined by a Gly/Ala/Ser/Thr linker)
Procedure, shortened: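 Displacement of a TQ5WS-quencher-labelled PUMA peptide (400 nM) from Cy5-labelled His-tagged Bcl-xL 2-197 N197C (1 nM) raises fluorescence. An 11-point compound dilution was incubated 2 h at 23 °C in HEPES 10 mM, NaCl 150 mM, 0.05% Tween 20, pH 7.4, 5% DMSO. Fluorescence was read at Ex 620/Em 680 nm, and KI was derived from IC50.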

[10] = test system: T-ALL (T-cell Acute Lymphoblastic Leukemia) and different types of solid tumors; conditions: pre-clinical models of T-ALL and different types of solid tumors; cited from earlier work
[11] = test system: MOLT-4; conditions: mature T-ALL cell line xenograft model MOLT-4; cited from earlier work

T1 sequence (Q07817 with tags, fused parts or gaps V9A/V10N): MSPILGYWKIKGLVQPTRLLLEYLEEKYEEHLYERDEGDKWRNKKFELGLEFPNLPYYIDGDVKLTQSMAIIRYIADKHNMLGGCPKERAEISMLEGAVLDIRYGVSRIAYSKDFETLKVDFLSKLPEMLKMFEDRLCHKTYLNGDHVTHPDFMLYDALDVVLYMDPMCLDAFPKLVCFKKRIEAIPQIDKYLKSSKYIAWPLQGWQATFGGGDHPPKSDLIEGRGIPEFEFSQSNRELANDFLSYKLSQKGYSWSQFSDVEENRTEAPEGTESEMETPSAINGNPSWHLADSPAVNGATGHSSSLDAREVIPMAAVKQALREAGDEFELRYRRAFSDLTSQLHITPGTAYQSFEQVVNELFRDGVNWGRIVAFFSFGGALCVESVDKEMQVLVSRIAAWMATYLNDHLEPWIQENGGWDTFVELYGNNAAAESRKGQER
T2 sequence (Q07817 2-197 N197C): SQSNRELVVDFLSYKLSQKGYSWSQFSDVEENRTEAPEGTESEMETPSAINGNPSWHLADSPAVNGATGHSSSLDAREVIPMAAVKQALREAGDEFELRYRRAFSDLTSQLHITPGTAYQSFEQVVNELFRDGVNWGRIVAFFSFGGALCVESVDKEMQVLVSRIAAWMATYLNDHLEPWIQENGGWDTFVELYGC

SMILES | activity in pre-clinical models [1] | antitumor activity in clinical studies [2] | activity in T-ALL patient derived xenograft models [3] | Ki [4] [nM] | % TGI (day 17) [5] [%] | activity in vivo after intravenous administration [5] | IC50 [6] [nM] | IC50 [7] [nM] | IC50 [8] [nM] | Ki [9] [nM] | in vivo activity [10] | in vitro and in vivo activity [11]
CC1(C)CCC(c2ccc(Cl)cc2)=C(CN2CCN(c3ccc(C(=O)NS(=O)(=O)c4ccc(N[C@H](CCN5CCOCC5)CSc5ccccc5)c(S(=O)(=O)C(F)(F)F)c4)cc3)CC2)C1 [ABT-263] | has shown activity | exhibited objective antitumor activity | promising activity | – | – | – | – | – | – | – | – | –
CNCC#Cc1ccc(OCCCc2sc(N(C)c3cc(C)c(Nc4nc5ccccc5s4)nn3)nc2C(=O)O)c(F)c1 [Example 73, 2-({6-[(1,3-Benzothiazol-2-yl)amino]-5-methylpyridazin-3-yl}(methyl)amino)-5-(3-{2-fluoro-4-[3-(methylamino)prop-1-yn-1-yl]phenoxy]propyl)-1,3-thiazole-4-carboxylic acid] | – | – | – | < 1 | 56.9 | active in vivo | 1.51 | 4.8 | 0.0077 | 0.0028 | – | –
CNCCN(C)CC#Cc1ccc(OCCCc2sc(N(C)c3cc(C)c(Nc4nc5ccccc5s4)nn3)nc2C(=O)O)c(F)c1 [Example 74, 2-({6-[(1,3-Benzothiazol-2-yl)amino]-5-methylpyridazin-3-yl}(methyl)amino)-5-{3-[2-fluoro-4-(3-{methyl[2-(methylamino)ethyl]amino}prop-1-yn-1-yl)phenoxy]propyl}-1,3-thiazole-4-carboxylic acid] | – | – | – | 1.1 | – | active in vivo | 6.72 | 6.78 | 0.074 | 0.0061 | – | –
Cc1cc(N(C)c2nc(C(=O)O)c(CCCOc3ccc(C#CCN(C)CCO)cc3F)s2)nnc1Nc1nc2ccccc2s1 [Example 76, 2-({6-[(1,3-Benzothiazol-2-yl)amino]-5-methylpyridazin-3-yl}(methyl)amino)-5-[3-(2-fluoro-4-{3-[(2-hydroxyethyl)(methyl)amino]prop-1-yn-1-yl}phenoxy)propyl]-1,3-thiazole-4-carboxylic acid] | – | – | – | < 1 | – | active in vivo | 2.37 | 11.3 | 0.077 | – | – | –
Cc1cc(N(C)c2nc(C(=O)O)c(CCCOc3ccc(C#CCO)cc3F)s2)nnc1Nc1nc2ccccc2s1 [Example 100, 2-({6-[(1,3-Benzothiazol-2-yl)amino]-5-methylpyridazin-3-yl}(methyl)amino)-5-{3-[2-fluoro-4-(3-hydroxyprop-1-yn-1-yl)phenoxy]propyl}-1,3-thiazole-4-carboxylic acid] | – | – | – | 1.6 | 64.6 | active in vivo | 12.6 | 38.6 | 0.032 | – | – | –
Cc1cc(N(CCCCCNCCN2CCOCC2)c2nc(C(=O)O)c(CCCOc3ccc(C#CCN(C)C)cc3F)s2)nnc1Nc1nc2ccccc2s1 [Example 166, 2-[[6-(1,3-Benzothiazol-2-ylamino)-5-methyl-pyridazin-3-yl]-[5-(2-morpholinoethylamino)pentyl]amino]-5-[3-[4-[3-(dimethylamino)prop-1-ynyl]-2-fluoro-phenoxy]propyl]thiazole-4-carboxylic acid] | – | – | – | < 1 | – | – | 172 | 142 | 0.0092 | 0.0026 | – | –
Cc1cc(N(CCCCCNCCN2CCN(C)CC2)c2nc(C(=O)O)c(CCCOc3ccc(C#CCN(C)C)cc3F)s2)nnc1Nc1nc2ccccc2s1 [Example 167, 2-[[6-(1,3-Benzothiazol-2-ylamino)-5-methyl-pyridazin-3-yl]-[5-[2-(4-methylpiperazin-1-yl)ethylamino]pentyl]amino]-5-[3-[4-[3-(dimethylamino)prop-1-ynyl]-2-fluoro-phenoxy]propyl]thiazole-4-carboxylic acid] | – | – | – | < 1 | – | – | 400 | 432 | 0.013 | 0.0029 | – | –
CNCCN(C)CC(O)CCCN(c1cc(C)c(Nc2nc3ccccc3s2)nn1)c1nc(C(=O)O)c(CCCOc2ccc(C#CCN(C)C)cc2F)s1 (stereo not drawn) [Example 169, 2-[[6-(1,3-Benzothiazol-2-ylamino)-5-methyl-pyridazin-3-yl]-[4-hydroxy-5-[methyl-[2-(methylamino)ethyl]amino]pentyl]amino]-5-[3-[4-[3-(dimethylamino)prop-1-ynyl]-2-fluoro-phenoxy]propyl]thiazole-4-carboxylic acid] | – | – | – | < 1 | – | – | 106 | 73.1 | 0.0099 | 0.0044 | – | –
CCN(CC)CCNCC(O)CCCN(c1cc(C)c(Nc2nc3ccccc3s2)nn1)c1nc(C(=O)O)c(CCCOc2ccc(C#CCN(C)C)cc2F)s1 (stereo not drawn) [Example 170, 2-[[6-(1,3-Benzothiazol-2-ylamino)-5-methyl-pyridazin-3-yl]-[5-[2-(diethylamino)ethylamino]-4-hydroxy-pentyl]amino]-5-[3-[4-[3-(dimethylamino)prop-1-ynyl]-2-fluoro-phenoxy]propyl]thiazole-4-carboxylic acid] | – | – | – | < 1 | – | – | 154 | 156 | 0.014 | 0.005 | – | –
Cc1cc(N(CCCC(O)CN2CCC(N)CC2)c2nc(C(=O)O)c(CCCOc3ccc(C#CCN(C)C)cc3F)s2)nnc1Nc1nc2ccccc2s1 (stereo not drawn) [Example 171, 2-[[5-(4-Amino-1-piperidyl)-4-hydroxy-pentyl]-[6-(1,3-benzothiazol-2-ylamino)-5-methyl-pyridazin-3-yl]amino]-5-[3-[4-[3-(dimethylamino)prop-1-ynyl]-2-fluoro-phenoxy]propyl]thiazole-4-carboxylic acid] | – | – | – | < 1 | – | – | 411 | 110 | 0.013 | 0.0035 | – | –
Cc1cc(N(CCCC(O)CN2CCNCC2)c2nc(C(=O)O)c(CCCOc3ccc(C#CCN(C)C)cc3F)s2)nnc1Nc1nc2ccccc2s1 (stereo not drawn) [Example 172, 2-[[6-(1,3-Benzothiazol-2-ylamino)-5-methyl-pyridazin-3-yl]-(4-hydroxy-5-piperazin-1-yl-pentyl)amino]-5-[3-[4-[3-(dimethylamino)prop-1-ynyl]-2-fluoro-phenoxy]propyl]thiazole-4-carboxylic acid] | – | – | – | < 1 | – | – | 160 | 40.2 | 0.0078 | 0.0026 | – | –
CN(C)CC#Cc1ccc(OCCCc2sc(N3CCc4cccc(C(=O)Nc5nc6ccccc6s5)c4C3)nc2C(=O)O)c(F)c1 [Example A-1155463] | – | – | – | – | – | – | – | – | – | – | exhibited in vivo activity | –
Cc1c(-c2ccc(N3CCc4cccc(C(=O)Nc5nc6ccccc6s5)c4C3)nc2C(=O)O)cnn1CC12CC3CC(CC(C3)C1)C2 [Example A-1331852] | – | – | – | – | – | – | – | – | – | – | exhibited in vivo activity | in vitro and in vivo activity

— patent US12649733B2, “3,6-diamino-pyridazin-3-yl derivatives, pharmaceutical compositions containing them and their uses as pro-apoptotic agents” (LES LABORATOIRES SERVIER, priority 2019, dated 2026)
